Results reported in publication PMC6792352, “Limited Chemical Structural Diversity Found to Modulate Thyroid Hormone Receptor in the Tox21 Chemical Library” (Environmental Health Perspectives, 2019).
Where a name gives a salt, the structure may show the parent alone.

Experiment: in vitro
Details: rat, gh3-tre-luc cells

SMILES	CC50 at 24 h (AC50 (uM) modified / 1000) [µM]	also measured
C/C(=N\C#N)N(C)Cc1ccc(Cl)nc1 [Acetamiprid]	> 90	
CCS(=O)(=O)C(C)(C)S(=O)(=O)CC [Sulfonmethane]		CC50 at 24 h (AC50 (uM) modified / 1000, Tox21_110001=Tox21_112150, viability, 1 nM T3 present, 24 h): > 50 µM
CN(C)C=O [N,N-Dimethylformamide]	> 90	
CC(=O)O[Si](C)(OC(C)=O)OC(C)=O [Methylsilanetriyl triacetate]	> 90	
N#Cc1ccccn1 [2-Pyridinecarbonitrile]	> 100	
CCN(CC)CCOC(=O)c1cccnc1 [Nicametate citrate]	> 50	
CCCCCCCCCCCCCCCC(=O)OCC [Ethyl hexadecanoate]	> 90	
Nc1ccc(C(=O)Nc2ccccc2N)cc1 [Dianiline]	14.1	
CSc1nc2cc(Cl)c(Oc3cccc(Cl)c3Cl)cc2[nH]1 [Triclabendazole]	28.5	
O=c1c(-c2ccc(O)cc2)coc2cc(O)ccc12 [Daidzein]	> 90	
CCCCCCCC=O [Octanal]	> 90	
CC(=O)Nc1ccc2c(c1)Cc1ccccc1-2 [2-Acetylaminofluorene]		CC50 at 24 h (AC50 (uM) modified / 1000, Tox21_110001=Tox21_200830, viability, 1 nM T3 present, 24 h): > 90 µM
CCOC(=O)c1ccccc1N [Ethyl anthranilate]		CC50 at 24 h (AC50 (uM) modified / 1000, Tox21_110001=Tox21_202019, viability, 1 nM T3 present, 24 h): > 90 µM
O=C(c1ccccc1)c1ccccc1 [Benzophenone]	> 50	
NC(N)=S [Thiourea]	> 90	
C=C[Si](OC(=C)C)(OC(=C)C)OC(=C)C [Ethenyl[tris(prop-1-en-2-yloxy)]silane]	> 90	
Cc1nnc(SCC2=C(C(=O)O)N3C(=O)[C@@H](NC(=O)Cn4cnnn4)[C@H]3SC2)s1 [Cefazolin]	> 50	
C=C(C)c1cccc(C(=C)C)c1 [1,3-Diisopropenylbenzene]	> 90	
CC(C)Cc1ccccc1 [Isobutylbenzene]	> 90	

SMILES	CC50 at 24 h (AC50 (uM) modified / 1000) [µM]	also measured
C[C@]1(Cn2ccnn2)[C@H](C(=O)O)N2C(=O)C[C@H]2S1(=O)=O [Tazobactam sodium]	> 50	
CC[N+]1(CC)CCC(=C(c2ccccc2)c2ccccc2)C1C (centres unmarked) [Prifinium bromide]	> 50	
C[C@@H]1CN(CCCn2c3ccccc3c3ccccc32)C[C@H](C)N1 [Rimcazole dihydrochloride]	7.99	
O=c1ssc(Cl)c1Cl [4,5-Dichloro-3H-1,2-dithiol-3-one]	48	
CCCC(=O)OC[C@@H](OC(=O)CCC)[C@@H](OC(=O)CCC)[C@H](Cn1c2nc(=O)[nH]c(=O)c-2nc2cc(C)c(C)cc21)OC(=O)CCC [Riboflavin tetrabutyrate]	> 50	
CCSC(=O)Cl	> 100	
O=S(=O)(Cl)c1ccccc1 [Benzenesulfonyl chloride]	> 90	
NC(=O)COCCN1CCN(C(c2ccccc2)c2ccc(Cl)cc2)CC1 (centres unmarked) [Cetirizine amide dihydrochloride]	21.7	
CN(C/C=C/C#CC(C)(C)C)Cc1cccc2ccccc12 [Terbinafine]	38.3	
C#C[C@]1(O)CC[C@H]2[C@@H]3CCC4=CC(=O)CC[C@@H]4[C@H]3C(=C)C[C@@]21CC [Etonogestrel]	> 50	
COC1=C(OC)C(=O)C(C/C=C(\C)CC/C=C(\C)CC/C=C(\C)CC/C=C(\C)CC/C=C(\C)CC/C=C(\C)CC/C=C(\C)CC/C=C(\C)CC/C=C(\C)CCC=C(C)C)=C(C)C1=O [Ubidecarenone]	> 50	
CC1=CC[C@@]23C[C@@H]1C(C)(C)[C@@H]2CC[C@H]3C [(-)-alpha-Cedrene]	> 90	
C[C@@H]1O[C@@H]1P(=O)(O)O [Fosfomycin calcium]	> 50	
O=C1Cc2ccccc2N1c1c(Cl)cccc1Cl [1-(2,6-Dichlorophenyl)-2-indolinone]	> 90	
CCCCCCCCCC(C)C=O (centres unmarked) [2-Methylundecanal]	> 90	
CCCCNC(=O)NS(=O)(=O)c1ccc(C)cc1 [Tolbutamide]	> 90	
Oc1ccc2c(c1)OCO2 [Sesamol]	> 90	
CC/C=C\CCOC(=O)CCCCC [(3Z)-Hex-3-en-1-yl hexanoate]	> 90	
O=C(O)c1cccnc1C(=O)O [Quinolinic acid]	> 90	
